This is an account of results in patent publication US20070265456A1, “Novel crystal forms of atorvastatin hemi-calcium and processes for their preparation as well as novel processes for preparing other forms” (priority 2006, published 2007).

This data set can be described thus: Stability testing against formation of the impurities atorvastatin-epoxy-dihydroxy (AED) and epoxydiketone on storage. More on the design: key to ATV-epoxy-diketone: impurity content in % (w/w). It is filed as physicochemical. As for the experimental part: As used herein, the term “stable” in reference to atorvastatin hemi-calcium Form VIII relates to the formation of […] 0.01% (w/w) of the impurity AED. The stability of Form VIII is measured by maintaining Form VIII at a temperature of about 40° C. at a relative humidity of about 75% for at least about 1 month, or at a temperature of about 25° C. at a relative humidity of about 60% for at least about 6 months. Stable atorvastatin hemi-calcium Form VIII is a Form VIII in which no more than about 0.01% (w/w) of the AED impurity is formed when maintained under the conditions specified above.
The atorvastatin hemi-calcium crystalline produced above was dried by two steps: In a vacuum dryer at about 40° C. by 3 cycles and after the LOD<5% was reached the drying was continued in a fluid bed dryer at about 50° C. The dry material was milled and micronized.
The dried, milled, atorvastatin hemi-calcium crystalline was tested for stability against the formation of two potential impurities: atorvastatin-epoxy-dihydroxy (AED) and epoxydiketone.

[1] abbreviates: 0 (5 m at storage) (Test Sample B).
The mark [2] stands for this setting: 1 m/25° C./60% RH (Test Sample E).
Where [3] appears, read: 1 m/40° C./75% RH (Test Sample I).
Where [4] appears, read: 2 m/25° C./60% RH (Test Sample F).
The mark [5] stands for this setting: 2 m/40° C./75% RH (Test Sample J).
The mark [6] stands for this setting: 3 m/25° C./60% RH (Test Sample G).
The mark [7] stands for this setting: 3 m/40° C./75% RH (Test Sample K).
The mark [8] stands for this setting: 6 m/25° C./60% RH (Test Sample H).
The mark [9] stands for this setting: 6 m/40° C./75% RH (Test Sample L).

Turning to `CC(C)c1c(C(=O)Nc2ccccc2)c(-c2ccccc2)c(-c2ccc(F)cc2)n1CC[C@@H](O)C[C@@H](O)CC(=O)O` (relative stereo) [atorvastatin hemi-calcium crystalline, atorvastatin hemi-calcium], the ATV-epoxy-dihydroxy (AED) was < 0.01 % (w/w) under setting [1]; < 0.01 % (w/w) under setting [2]; < 0.01 % (w/w) under setting [3]; < 0.01 % (w/w) under setting [4]; < 0.05 % (w/w) under setting [5]; < 0.01 % (w/w) (3 m/2-8° C. (Test Sample C)). In addition, the ATV-epoxy-dihydroxy (AED) is < 0.01 % (w/w) under setting [6]; < 0.05 % (w/w) under setting [7]; < 0.05 % (w/w) (6 m/2-8° C. (Test Sample D)); < 0.01 % (w/w) under setting [8]; < 0.05 % (w/w) under setting [9]; < 0.01 % (w/w) (release (Test Sample A)). Besides, the ATV-epoxy-diketone runs as follows: under setting [1], less than 0.01; under setting [2], less than 0.01; under setting [3], less than 0.05; under setting [4], less than 0.05; under setting [5], less than 0.05; (3 m/2-8° C. (Test Sample C)) less than 0.05. The ATV-epoxy-diketone is, setting by setting: under setting [6], less than 0.05; under setting [7], 0.05; (6 m/2-8° C. (Test Sample D)) less than 0.05; under setting [8], less than 0.05; under setting [9], 0.05; (release (Test Sample A)) less than 0.01.
